Laboratory results published in US6521628B1, “Fungicidal mixtures” (BASF Aktiengesellschaft, priority 1999, dated 2003).
Like-named read-outs stand apart in the source and are kept apart here.

Assays:
Assay type in all cases: in vivo
Puccinia recondita = assay: Greenhouse test, 4 day residual, Puccinia recondita on wheat (Examples 7, 9, 12, 15); settings: 96 h, read-out: Observed Efficacy; for pest or weed control at 0.4 ppm: dose rate 0.4 ppm; for pest or weed control at 2 ppm: dose rate 2 ppm; for pest or weed control at 10 ppm: dose rate 10 ppm; for pest or weed control at 50 ppm: dose rate 50 ppm; for pest or weed control at 4 ppm: dose rate 4 ppm; for pest or weed control at 16 ppm: dose rate 16 ppm
Description: (§1) The trials are carried out under greenhouse (Examples 1 to 18) or field conditions (Example 19) in residual or curative applications. The fungicides are applied in single treatments, or in a combination comprising a benzophenone of formula I and a compound selected from the classes (A) through (E) as defined above. The compounds are applied in form of an aqueous spray mix obtained from concentrated formulation or the technical material.
(§2) 1. Seed is planted in 6 cm diameter plastic pots and maintained in the greenhouse.
(§3) 2. When the primary leaf is fully expanded in the case of cereals or several leaves are present in the case of dicots, formulated test compounds are sprayed with a three nozzle overhead fungicide sprayer to near run-off. Alternatively, a single nozzle overhead track sprayer is used for application of the compounds to cereals at a rate of 200 l/ha. Plants are then allowed to air-dry.
(§4) 3. Inoculation precedes treatment in the case of curative evaluations and follows treatment in case of residual evaluations.
(§5) For inoculation of non-powdery mildew diseases, an aqueous spore suspension of the pathogen is applied to the plant and the plants are kept 1-2 days in a moist infection chamber before being returned to the greenhouse where they are maintained by bottom watering.
(§6) 4. Disease on the foliage as percent leaf area with disease symptoms/signs is evaluated about 7 days after inoculation. In the case of wheat, the tips and bases of the leaves are excluded from the evaluation. [formula]
(§7) 1. Technical compounds are formulated in a solvent/surfactant system consisting of 5% acetone and 0.05% Tween 20 in deionized water. Compounds are dissolved in acetone prior to addition of the water; the Tween 20 can be added through either the acetone or the water. Dilutions are made using the solvent/surfactant system. Formulated compounds are prepared using deionized water.
(§8) Assessments of the diseases took place at the indicated day after the application of the compounds. Per cent infected leaf area infected was evaluated. The efficacy of the compounds/compounds mixtures to control the diseases was calculated by using the formula given above under item 4: […]
(§9) Synergy was calculated using the % disease control values of specific treatments for the two COLBY formula given hereinabove
Fungicidal Efficacy of the Mixture of BP-4+Other Fungicides (4 Day Residual) Against Puccinia recondita on Wheat
Fungicidal Efficacy of the Mixture of BP4+Other Fungicides (4 Day Residual) Against Puccinia recondita on Wheat
Fungicidal Efficacy of the Mixture of BP-4+Myclobutanil (4 Day Residual) Against Puccinia recondita on Wheat

Pyrenophora teres = assay: Greenhouse test, 4 day residual, Pyrenophora teres on barley (Examples 13, 16); settings: 96 h, single product, read-out: Observed Efficacy; for pest or weed control at 0.4 ppm: dose rate 0.4 ppm; for pest or weed control at 2 ppm: dose rate 2 ppm; for pest or weed control at 10 ppm: dose rate 10 ppm; for pest or weed control at 50 ppm: dose rate 50 ppm
Description: as §1, §2, §3, §4, §5, §6, §7, §8, §9
Fungicidal Efficacy of the Mixture of BP4+Other Fungicides (4 Day Residual) Against Pyrenophora teres on barley
Fungicidal Efficacy of the Mixture of BP4+Other Fungicides (4 Day Residual) Against Pyrenophora teres on Barley

Erysiphe cichoracearum = assay: Greenhouse test, 4 day residual, Erysiphe cichoracearum on cucumbers (Examples 6, 11, 14); settings: Golovinomyces cichoracearum, 96 h, read-out: Observed Efficacy; for pest or weed control at 0.4 ppm: dose rate 0.4 ppm; for pest or weed control at 2 ppm: dose rate 2 ppm; for pest or weed control at 10 ppm: dose rate 10 ppm; for pest or weed control at 50 ppm: dose rate 50 ppm
Description: as §1, §2, §3, §4
(§10) For inoculation of powdery mildew disease, plants are set up on greenhouse benches with bottom watering mats and inoculated by dusting them with conidia from infected plants. Between inoculation and treatment for curative evaluations and between treatment and inoculation for residual evaluations, plants are maintained in the greenhouse with bottom watering.
as §6, §7, §8, §9
Fungicidal Efficacy of the Mixture of BP-4+Other Fungicides (4 Day Residual) Against Erysiphe cichoracearum on Cucumbers
Fungicidal Efficacy of the Mixture of BP4+Other Fungicides (4 Day Residual) Against Erysiphe cichoracearum on Cucumbers

Leptosphaeria nodorum = assay: Greenhouse test, 4 day residual, Leptosphaeria nodorum on wheat (Examples 8, 10); settings: Parastagonospora nodorum, 96 h, single compound, read-out: Observed Efficacy; for pest or weed control at 4 ppm: dose rate 4 ppm; for pest or weed control at 16 ppm: dose rate 16 ppm; for pest or weed control at 64 ppm: dose rate 64 ppm; for pest or weed control at 256 ppm: dose rate 256 ppm
Excerpt: The fungicides are applied in single treatments, or in a combination comprising a benzophenone of formula I and a compound selected from the classes (A) through (E) as defined above. The compounds are applied in form of an aqueous spray mix obtained from concentrated formulation or the technical material.
as §2, §3, §4, §5, §6, §7, §8, §9

Uncinula necator = assay: Greenhouse test, 1 day residual, Uncinula necator on vines (Example 18); settings: Table XVIII, single compound
Description: as §1, §2, §3, §4, §10, §6, §7, §8, §9
Fungicidal Efficacy of the Mixture of BP-4+AP-4 (1 Day Residual) Against Uncinula necator on Vines

[1] = tested on: Blumeria graminis f. sp. tritici; assay: Greenhouse test, 2 day curative, Blumeria graminis f. sp. tritici on wheat (Example 17); settings: Table XVII, single compound
Description: as §1, §2, §3, §4, §10, §6, §7, §8, §9
Fungicidal Efficacy of the Mixture of Different Benzophenones+Metconazole (2 Day Curative) Against Blumeria graminis f. sp. tritici on Wheat

[2] = Example 15, Table XV, single product, wheat
[3] = Example 14, Table XIV, single product, cucumbers
[4] = Table XI, single compound or product

## COc1cc(C)c(C(=O)c2c(C)ccc(Br)c2OC)c(OC)c1OC [BP-4, 3-bromo-2′,6-dimethyl-2,4′,5′,6′-tetramethoxybenzophenone]
Puccinia recondita; [2]
  pest or weed control at 0.4 ppm: 0%
  pest or weed control at 2 ppm: 0%
  pest or weed control at 10 ppm: 6%
  pest or weed control at 50 ppm: 12%
Puccinia recondita; Table IX, single compound
  pest or weed control at 4 ppm: 6%
  pest or weed control at 16 ppm: 4%
Puccinia recondita; Table IX, single compound, dose rate 64 ppm
  pest or weed control at 64 ppm: 16%
Puccinia recondita; Table IX, single compound, dose rate 256 ppm
  pest or weed control at 256 ppm: 38%
Puccinia recondita; Table VII, single compound
  pest or weed control at 4 ppm: 0%
  pest or weed control at 16 ppm: 0%
Puccinia recondita; Table XII, single compound
  pest or weed control at 0.4 ppm: 2%
  pest or weed control at 2 ppm: 7%
  pest or weed control at 10 ppm: 10%
  pest or weed control at 50 ppm: 31%
Pyrenophora teres; Example 13, Table XIII
  pest or weed control at 0.4 ppm: 0%
  pest or weed control at 2 ppm: 0%
  pest or weed control at 10 ppm: 34%
  pest or weed control at 50 ppm: 58%
Pyrenophora teres; Example 16, Table XVI
  pest or weed control at 0.4 ppm: 0%
  pest or weed control at 2 ppm: 0%
  pest or weed control at 10 ppm: 0%
  pest or weed control at 50 ppm: 11%
Erysiphe cichoracearum; [3]
  pest or weed control at 0.4 ppm: 0%
  pest or weed control at 2 ppm: 0%
  pest or weed control at 10 ppm: 13%
  pest or weed control at 50 ppm: 97%
Erysiphe cichoracearum; Table VI, single compound, dose rate 1 ppm
  pest or weed control at 1 ppm: 1%
Erysiphe cichoracearum; Table VI, single compound, dose rate 4 ppm
  pest or weed control at 4 ppm: 6%
Erysiphe cichoracearum; Table VI, single compound, dose rate 16 ppm
  pest or weed control at 16 ppm: 51%
Erysiphe cichoracearum; Table VI, single compound, dose rate 64 ppm
  pest or weed control at 64 ppm: 100%
Erysiphe cichoracearum; [4]
  pest or weed control at 0.4 ppm: 0%
  pest or weed control at 2 ppm: 2%
  pest or weed control at 10 ppm: 55%
  pest or weed control at 50 ppm: 96%
Leptosphaeria nodorum; Table VIII
  pest or weed control at 4 ppm: 0%
  pest or weed control at 16 ppm: 0%
  pest or weed control at 64 ppm: 14%
  pest or weed control at 256 ppm: 34%
Leptosphaeria nodorum; Table X
  pest or weed control at 4 ppm: 0%
  pest or weed control at 16 ppm: 10%
  pest or weed control at 64 ppm: 18%
  pest or weed control at 256 ppm: 44%
Uncinula necator; dose rate 0.25 ppm
  Observed Efficacy: 0%
Uncinula necator; dose rate 0.5 ppm
  Observed Efficacy: 21%
Uncinula necator; dose rate 1 ppm
  Observed Efficacy: 28%
Uncinula necator; dose rate 2 ppm
  Observed Efficacy: 9%
Uncinula necator; dose rate 4 ppm
  Observed Efficacy: 43%
Uncinula necator; dose rate 8 ppm
  Observed Efficacy: 42%
[1]; dose rate 0.67 ppm
  Observed Efficacy: 9%
[1]; dose rate 2 ppm
  Observed Efficacy: 27%
[1]; dose rate 6 ppm
  Observed Efficacy: 42%
[1]; dose rate 18 ppm
  Observed Efficacy: 78%
[1]; dose rate 54 ppm
  Observed Efficacy: 92%

## CC(C1CC1)C(O)(Cn1cncn1)c1ccc(Cl)cc1 (stereo not drawn) [Cyproconazole]
Puccinia recondita; [2]
  pest or weed control at 0.4 ppm: 58%
